Measurements from ChEMBL document CHEMBL4507281, “Data for DCP probe BI-4394” (2021).

Legend:
[1] = target: Non-receptor tyrosine-protein kinase TYK2 (Homo sapiens) (UniProt P29597); conditions: Compound concentration 100.0 nM
[2] = target: Cyclin-dependent kinase 3 (Homo sapiens) (UniProt Q00526); conditions: Compound concentration 100.0 nM
[3] = target: Serine/threonine-protein kinase SBK1 (Homo sapiens) (UniProt Q52WX2); conditions: Compound concentration 100.0 nM
[4] = system: Receptor-type tyrosine-protein kinase FLT3 (Homo sapiens), P36888 [UNDEFINED MUTATION]; conditions: Compound concentration 100.0 nM
[5] = target: Cyclin-dependent kinase 11B (Homo sapiens) (UniProt P21127); conditions: Compound concentration 100.0 nM
[6] = target: Hormonally up-regulated neu tumor-associated kinase (Homo sapiens) (UniProt P57058); conditions: Compound concentration 100.0 nM
[7] = target: cAMP-dependent protein kinase catalytic subunit alpha (Homo sapiens) (UniProt P17612); conditions: Compound concentration 100.0 nM
[8] = system: Mast/stem cell growth factor receptor Kit (Homo sapiens), P10721 [V559D]; conditions: Compound concentration 100.0 nM
[9] = target: Dual specificity protein kinase CLK3 (Homo sapiens) (UniProt P49761); conditions: Compound concentration 100.0 nM
[10] = target: Tyrosine-protein kinase HCK (Homo sapiens) (UniProt P08631); conditions: Compound concentration 100.0 nM
[11] = system: Epidermal growth factor receptor (Homo sapiens), P00533 [UNDEFINED MUTATION]; conditions: Compound concentration 100.0 nM
[12] = target: Testis-specific serine/threonine-protein kinase 3 (Homo sapiens) (UniProt Q96PN8); conditions: Compound concentration 100.0 nM
[13] = target: Serine/threonine-protein kinase N2 (Homo sapiens) (UniProt Q16513); conditions: Compound concentration 100.0 nM
[14] = target: 3-phosphoinositide-dependent protein kinase 1 (Homo sapiens) (UniProt O15530); conditions: Compound concentration 100.0 nM
[15] = target: Cyclin-dependent kinase 9 (Homo sapiens) (UniProt P50750); conditions: Compound concentration 100.0 nM
[16] = target: Cyclin-dependent kinase-like 5 (Homo sapiens) (UniProt O76039); conditions: Compound concentration 100.0 nM
[17] = system: Tyrosine-protein kinase ABL1 (Homo sapiens), P00519 [H396P]; conditions: Compound concentration 100.0 nM
[18] = target: Serine/threonine-protein kinase PAK 5 (Homo sapiens) (UniProt Q9P286); conditions: Compound concentration 100.0 nM
[19] = target: Serine/threonine-protein kinase SIK1 (Homo sapiens) (UniProt P57059); conditions: Compound concentration 100.0 nM
[20] = target: Calcium/calmodulin-dependent protein kinase type 1 (Homo sapiens) (UniProt Q14012); conditions: Compound concentration 100.0 nM
[21] = target: Dual specificity tyrosine-phosphorylation-regulated kinase 1A (Homo sapiens) (UniProt Q13627); conditions: Compound concentration 100.0 nM
[22] = target: TGF-beta receptor type-2 (Homo sapiens) (UniProt P37173); conditions: Compound concentration 100.0 nM
[23] = target: Muscarinic acetylcholine receptor M4 (Homo sapiens) (UniProt P08173); conditions: Compound concentration 10.0 uM
[24] = target: Serine/threonine-protein kinase 32B (Homo sapiens) (UniProt Q9NY57); conditions: Compound concentration 100.0 nM
[25] = target: Casein kinase I isoform gamma-1 (Homo sapiens) (UniProt Q9HCP0); conditions: Compound concentration 100.0 nM
[26] = target: Mast/stem cell growth factor receptor Kit (Homo sapiens) (UniProt P10721); conditions: Compound concentration 100.0 nM
[27] = target: GABA-A receptor; anion channel (Rattus norvegicus) (UniProt O09028+P15431+P18506+P18508+P19969+P20236+P23574+P23576+P28471+P28473+P30191+P62813+P63079+P63138+Q91ZM7+Q9ES14); conditions: Compound concentration 10.0 uM
[28] = target: Ephrin type-A receptor 4 (Homo sapiens) (UniProt P54764); conditions: Compound concentration 100.0 nM
[29] = target: Serine/threonine-protein kinase D2 (Homo sapiens) (UniProt Q9BZL6); conditions: Compound concentration 100.0 nM
[30] = target: Tyrosine-protein kinase Lyn (Homo sapiens) (UniProt P07948); conditions: Compound concentration 100.0 nM
[31] = target: Serine/threonine-protein kinase D1 (Homo sapiens) (UniProt Q15139); conditions: Compound concentration 100.0 nM
[32] = system: Tyrosine-protein kinase ABL1 (Homo sapiens), P00519 [M351T]; conditions: Compound concentration 100.0 nM
[33] = target: AP2-associated protein kinase 1 (Homo sapiens) (UniProt Q2M2I8); conditions: Compound concentration 100.0 nM
[34] = target: Eukaryotic translation initiation factor 2-alpha kinase 1 (Homo sapiens) (UniProt Q9BQI3); conditions: Compound concentration 100.0 nM
[35] = target: Bone morphogenetic protein receptor type-2 (Homo sapiens) (UniProt Q13873); conditions: Compound concentration 100.0 nM
[36] = target: Myosin light chain kinase family member 4 (Homo sapiens) (UniProt Q86YV6); conditions: Compound concentration 100.0 nM
[37] = system: Tyrosine-protein kinase ABL1 (Homo sapiens), P00519 [H396P]; conditions: Compound concentration 100.0 nM; remark: listed apart in the source
[38] = target: Ribosomal protein S6 kinase alpha-2 (Homo sapiens) (UniProt Q15349); conditions: Compound concentration 100.0 nM
[39] = target: Phosphatidylinositol 4,5-bisphosphate 3-kinase catalytic subunit alpha isoform (Homo sapiens) (UniProt P42336); conditions: Compound concentration 100.0 nM
[40] = target: Receptor tyrosine-protein kinase erbB-4 (Homo sapiens) (UniProt Q15303); conditions: Compound concentration 100.0 nM
[41] = target: Serine/threonine-protein kinase 3 (Homo sapiens) (UniProt Q13188); conditions: Compound concentration 100.0 nM
[42] = target: Casein kinase I isoform epsilon (Homo sapiens) (UniProt P49674); conditions: Compound concentration 100.0 nM
[43] = target: Mitogen-activated protein kinase kinase kinase 3 (Homo sapiens) (UniProt Q99759); conditions: Compound concentration 100.0 nM

Ribosomal protein S6 kinase alpha-2 (Homo sapiens), sequence (Q15349 whole entry, canonical isoform): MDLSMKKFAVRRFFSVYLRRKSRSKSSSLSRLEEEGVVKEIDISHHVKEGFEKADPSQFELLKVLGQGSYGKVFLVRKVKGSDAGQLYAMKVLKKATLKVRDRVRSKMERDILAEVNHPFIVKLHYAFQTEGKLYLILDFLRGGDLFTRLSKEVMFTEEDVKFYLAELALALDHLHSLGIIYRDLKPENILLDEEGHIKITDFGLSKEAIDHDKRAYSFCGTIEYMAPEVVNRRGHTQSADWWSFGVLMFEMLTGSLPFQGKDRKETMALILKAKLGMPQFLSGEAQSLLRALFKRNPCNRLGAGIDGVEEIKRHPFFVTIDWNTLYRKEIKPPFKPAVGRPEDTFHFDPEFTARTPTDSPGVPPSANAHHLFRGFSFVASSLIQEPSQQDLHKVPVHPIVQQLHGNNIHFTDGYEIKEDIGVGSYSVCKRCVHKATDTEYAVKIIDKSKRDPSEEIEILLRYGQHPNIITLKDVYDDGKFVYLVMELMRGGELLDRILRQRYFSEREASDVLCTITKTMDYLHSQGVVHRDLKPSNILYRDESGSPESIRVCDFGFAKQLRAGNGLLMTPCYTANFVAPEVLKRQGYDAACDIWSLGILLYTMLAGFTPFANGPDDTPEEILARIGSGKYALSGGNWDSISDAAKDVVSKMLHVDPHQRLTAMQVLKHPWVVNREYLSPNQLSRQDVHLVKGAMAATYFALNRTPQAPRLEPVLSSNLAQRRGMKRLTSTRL
Receptor tyrosine-protein kinase erbB-4 (Homo sapiens), sequence (Q15303 whole entry): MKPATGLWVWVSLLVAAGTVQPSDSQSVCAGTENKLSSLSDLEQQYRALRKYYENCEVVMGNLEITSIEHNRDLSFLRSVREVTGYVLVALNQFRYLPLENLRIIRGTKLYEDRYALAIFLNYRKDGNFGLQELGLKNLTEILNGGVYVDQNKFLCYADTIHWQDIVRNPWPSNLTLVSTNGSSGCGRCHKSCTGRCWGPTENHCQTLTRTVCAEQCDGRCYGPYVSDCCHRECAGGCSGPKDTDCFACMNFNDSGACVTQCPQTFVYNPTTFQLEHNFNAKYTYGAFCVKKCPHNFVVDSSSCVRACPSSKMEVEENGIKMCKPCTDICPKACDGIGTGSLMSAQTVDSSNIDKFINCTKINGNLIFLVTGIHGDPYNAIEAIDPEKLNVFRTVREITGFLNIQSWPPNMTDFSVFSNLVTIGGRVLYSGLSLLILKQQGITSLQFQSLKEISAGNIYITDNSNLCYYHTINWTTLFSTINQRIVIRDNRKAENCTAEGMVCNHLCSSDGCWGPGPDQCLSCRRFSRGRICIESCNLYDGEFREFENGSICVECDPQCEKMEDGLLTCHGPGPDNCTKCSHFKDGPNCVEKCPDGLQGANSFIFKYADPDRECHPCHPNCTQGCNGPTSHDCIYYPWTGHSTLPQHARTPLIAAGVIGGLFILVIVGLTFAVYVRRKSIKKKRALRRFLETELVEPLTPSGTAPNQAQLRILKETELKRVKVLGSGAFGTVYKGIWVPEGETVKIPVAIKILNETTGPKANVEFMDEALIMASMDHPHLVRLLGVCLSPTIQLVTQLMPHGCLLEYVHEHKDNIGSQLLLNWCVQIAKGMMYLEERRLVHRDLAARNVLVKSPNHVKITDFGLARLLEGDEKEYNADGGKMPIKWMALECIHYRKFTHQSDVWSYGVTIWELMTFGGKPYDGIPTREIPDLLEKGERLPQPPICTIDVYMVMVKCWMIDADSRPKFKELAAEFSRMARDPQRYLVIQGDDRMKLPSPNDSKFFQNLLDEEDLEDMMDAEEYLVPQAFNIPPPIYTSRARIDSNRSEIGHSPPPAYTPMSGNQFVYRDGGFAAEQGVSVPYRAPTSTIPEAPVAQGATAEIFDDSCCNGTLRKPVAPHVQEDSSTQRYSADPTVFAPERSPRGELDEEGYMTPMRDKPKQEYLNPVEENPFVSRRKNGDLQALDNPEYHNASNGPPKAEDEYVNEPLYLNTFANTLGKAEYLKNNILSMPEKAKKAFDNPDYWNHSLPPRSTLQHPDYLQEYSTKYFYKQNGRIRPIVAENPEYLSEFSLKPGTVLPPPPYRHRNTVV
TGF-beta receptor type-2 (Homo sapiens), sequence (P37173 whole entry): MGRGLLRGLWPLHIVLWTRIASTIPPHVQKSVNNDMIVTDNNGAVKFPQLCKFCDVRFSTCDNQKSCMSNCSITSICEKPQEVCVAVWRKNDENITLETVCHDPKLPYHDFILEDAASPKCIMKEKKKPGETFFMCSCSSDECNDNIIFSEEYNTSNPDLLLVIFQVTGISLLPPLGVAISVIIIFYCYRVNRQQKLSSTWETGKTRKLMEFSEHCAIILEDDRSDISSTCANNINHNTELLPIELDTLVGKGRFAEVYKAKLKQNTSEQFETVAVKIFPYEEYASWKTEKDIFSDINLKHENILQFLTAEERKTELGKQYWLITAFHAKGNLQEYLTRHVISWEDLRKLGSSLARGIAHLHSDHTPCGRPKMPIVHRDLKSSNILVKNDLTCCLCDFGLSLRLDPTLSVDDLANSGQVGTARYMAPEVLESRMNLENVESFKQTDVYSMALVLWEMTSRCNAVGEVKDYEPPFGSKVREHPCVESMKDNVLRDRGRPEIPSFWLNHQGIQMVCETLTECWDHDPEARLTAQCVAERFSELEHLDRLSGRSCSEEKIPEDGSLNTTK
Calcium/calmodulin-dependent protein kinase type 1 (Homo sapiens), sequence (Q14012 whole entry, looked up): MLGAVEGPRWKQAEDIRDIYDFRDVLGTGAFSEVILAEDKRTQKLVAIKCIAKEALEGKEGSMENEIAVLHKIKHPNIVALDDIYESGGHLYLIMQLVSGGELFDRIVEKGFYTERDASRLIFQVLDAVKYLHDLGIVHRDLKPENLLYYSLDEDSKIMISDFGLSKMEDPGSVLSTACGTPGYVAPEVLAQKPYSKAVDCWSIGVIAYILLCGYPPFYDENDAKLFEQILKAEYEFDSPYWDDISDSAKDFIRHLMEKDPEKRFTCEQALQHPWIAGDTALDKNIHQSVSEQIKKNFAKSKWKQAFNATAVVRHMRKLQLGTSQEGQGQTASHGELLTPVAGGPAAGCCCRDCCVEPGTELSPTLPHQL
Testis-specific serine/threonine-protein kinase 3 (Homo sapiens), sequence (Q96PN8 whole entry): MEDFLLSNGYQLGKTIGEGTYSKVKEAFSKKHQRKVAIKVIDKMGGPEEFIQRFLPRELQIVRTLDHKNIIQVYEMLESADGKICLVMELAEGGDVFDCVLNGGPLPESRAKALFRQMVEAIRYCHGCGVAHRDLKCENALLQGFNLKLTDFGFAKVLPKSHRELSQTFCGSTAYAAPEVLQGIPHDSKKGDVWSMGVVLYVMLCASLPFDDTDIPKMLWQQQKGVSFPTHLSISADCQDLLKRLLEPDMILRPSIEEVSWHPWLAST
Receptor-type tyrosine-protein kinase FLT3 (Homo sapiens), P36888 [UNDEFINED MUTATION], sequence (P36888 whole entry, looked up, change not shown): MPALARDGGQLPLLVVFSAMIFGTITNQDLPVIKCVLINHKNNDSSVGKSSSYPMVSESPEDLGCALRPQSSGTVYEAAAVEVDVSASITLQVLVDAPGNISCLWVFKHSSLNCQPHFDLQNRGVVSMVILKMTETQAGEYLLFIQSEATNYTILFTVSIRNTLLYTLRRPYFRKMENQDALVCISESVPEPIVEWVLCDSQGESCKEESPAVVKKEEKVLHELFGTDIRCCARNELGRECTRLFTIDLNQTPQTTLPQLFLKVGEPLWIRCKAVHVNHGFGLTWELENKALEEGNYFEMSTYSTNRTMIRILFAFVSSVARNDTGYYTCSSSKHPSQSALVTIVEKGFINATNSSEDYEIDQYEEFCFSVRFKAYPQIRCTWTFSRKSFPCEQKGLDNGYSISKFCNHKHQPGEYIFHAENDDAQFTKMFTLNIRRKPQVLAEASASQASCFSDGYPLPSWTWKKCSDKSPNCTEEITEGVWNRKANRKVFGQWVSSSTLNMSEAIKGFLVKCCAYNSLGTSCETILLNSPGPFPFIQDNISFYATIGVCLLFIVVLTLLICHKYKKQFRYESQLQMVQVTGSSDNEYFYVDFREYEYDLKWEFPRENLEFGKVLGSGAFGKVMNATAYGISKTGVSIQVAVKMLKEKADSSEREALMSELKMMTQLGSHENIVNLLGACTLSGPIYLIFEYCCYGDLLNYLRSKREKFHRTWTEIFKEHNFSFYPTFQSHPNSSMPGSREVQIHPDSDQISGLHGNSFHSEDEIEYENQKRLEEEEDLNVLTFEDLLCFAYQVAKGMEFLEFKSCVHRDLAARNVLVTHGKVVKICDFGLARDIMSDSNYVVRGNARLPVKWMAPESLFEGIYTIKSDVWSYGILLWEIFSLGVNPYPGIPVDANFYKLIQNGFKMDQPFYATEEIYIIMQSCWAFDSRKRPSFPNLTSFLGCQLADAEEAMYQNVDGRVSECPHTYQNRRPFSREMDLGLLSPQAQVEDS
Serine/threonine-protein kinase SIK1 (Homo sapiens), sequence (P57059 whole entry): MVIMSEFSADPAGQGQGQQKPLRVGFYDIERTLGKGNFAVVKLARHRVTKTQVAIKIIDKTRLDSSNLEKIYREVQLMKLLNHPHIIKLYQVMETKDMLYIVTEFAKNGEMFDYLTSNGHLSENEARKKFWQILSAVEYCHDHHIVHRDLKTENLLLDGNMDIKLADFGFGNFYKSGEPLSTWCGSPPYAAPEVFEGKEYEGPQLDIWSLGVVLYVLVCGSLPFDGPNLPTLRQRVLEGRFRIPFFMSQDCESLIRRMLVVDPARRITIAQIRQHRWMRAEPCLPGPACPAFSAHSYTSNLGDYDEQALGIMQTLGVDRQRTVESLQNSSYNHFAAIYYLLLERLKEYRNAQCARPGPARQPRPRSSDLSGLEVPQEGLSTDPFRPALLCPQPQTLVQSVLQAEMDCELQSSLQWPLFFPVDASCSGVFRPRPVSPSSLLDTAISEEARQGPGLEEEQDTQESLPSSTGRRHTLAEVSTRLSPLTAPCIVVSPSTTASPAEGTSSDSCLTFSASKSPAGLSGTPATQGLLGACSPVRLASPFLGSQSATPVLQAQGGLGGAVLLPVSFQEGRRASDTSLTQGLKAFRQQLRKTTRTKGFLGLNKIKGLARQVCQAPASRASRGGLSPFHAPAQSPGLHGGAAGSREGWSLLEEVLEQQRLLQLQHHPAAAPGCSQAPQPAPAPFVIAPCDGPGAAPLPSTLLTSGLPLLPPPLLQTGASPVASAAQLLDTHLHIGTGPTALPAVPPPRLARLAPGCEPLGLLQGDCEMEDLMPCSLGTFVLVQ

Which results are given for `CCOC(=O)c1cc2cc(-c3cc(C(=O)NCc4ccc(C(=O)O)cc4)nn3C)ccc2[nH]1` [BI 4394]?
residual activity [1]: 91%; residual activity [2]: 43%; residual activity [3]: 90%; residual activity [4]: 72%; residual activity [5]: 98%; residual activity [6]: 100%; residual activity [7]: 85%; residual activity [8]: 100%; residual activity [9]: 83%; residual activity [10]: 100%; residual activity [11]: 100%; residual activity [12]: 91%; residual activity [13]: 86%; residual activity [14]: 92%; residual activity [15]: 97%; residual activity [16]: 87%; residual activity [17]: 88%; residual activity [18]: 95%; residual activity [19]: 97%; residual activity [20]: 87%; residual activity [21]: 90%; residual activity [22]: 66%; inhibition [23]: -6.49%; residual activity [24]: 92%; residual activity [25]: 100%; residual activity [26]: 97%; inhibition [27]: 15.3%; residual activity [28]: 96%; residual activity [29]: 100%; residual activity [30]: 100%; residual activity [31]: 75%; residual activity [32]: 90%; residual activity [33]: 100%; residual activity [34]: 91%; residual activity [35]: 82%; residual activity [36]: 100%; residual activity [37]: 85%; residual activity [38]: 100%; residual activity [39]: 92%; residual activity [40]: 96%; residual activity [41]: 96%; residual activity [42]: 100%; residual activity [43]: 94%

With `Cn1nc(C(=O)NCc2ccc(C(=O)O)cc2)cc1-c1ccc2[nH]ccc2c1` [BI 4395] as the compound, how does the residual activity [1] read?
The residual activity was 94%.

And the residual activity [2]?
Its residual activity is 88%.

What about the residual activity [3] of the same compound?
The residual activity was 77%.

What about the residual activity [4] of the same compound?
The residual activity was 66%.

What about the residual activity [5] of the same compound?
The residual activity was 93%.

And the residual activity [6]?
Its residual activity is 65%.

What about the residual activity [7] of the same compound?
Its residual activity is 100%.

And the residual activity [8]?
Its residual activity is 90%.

What about the residual activity [9] of the same compound?
The residual activity was 95%.

And the residual activity [10]?
The residual activity was 81%.

And the residual activity [11]?
Its residual activity is 74%.

What about the residual activity [12] of the same compound?
Its residual activity is 97%.

And the residual activity [13]?
Its residual activity is 100%.

And the residual activity [14]?
The residual activity was 100%.

What about the residual activity [15] of the same compound?
Its residual activity is 82%.

And the residual activity [16]?
The residual activity was 85%.

And the residual activity [17]?
Its residual activity is 71%.

And the residual activity [18]?
The residual activity was 62%.

And the residual activity [19]?
Its residual activity is 100%.

And the residual activity [20]?
Its residual activity is 95%.

And the residual activity [21]?
The residual activity was 98%.

What about the residual activity [22] of the same compound?
Its residual activity is 100%.

And the inhibition [23]?
The inhibition was 0.05%.

And the residual activity [24]?
Its residual activity is 100%.

What about the residual activity [25] of the same compound?
Its residual activity is 91%.

What about the residual activity [26] of the same compound?
The residual activity was 97%.

What about the inhibition [27] of the same compound?
The inhibition was 26.6%.

And the residual activity [28]?
Its residual activity is 100%.

And the residual activity [29]?
Its residual activity is 100%.

And the residual activity [30]?
The residual activity was 100%.

And the residual activity [31]?
Its residual activity is 95%.

What about the residual activity [32] of the same compound?
Its residual activity is 75%.

And the residual activity [33]?
The residual activity was 90%.

What about the residual activity [34] of the same compound?
The residual activity was 90%.

What about the residual activity [35] of the same compound?
The residual activity was 83%.

What about the residual activity [36] of the same compound?
The residual activity was 76%.

And the residual activity [37]?
The residual activity was 84%.

And the residual activity [38]?
Its residual activity is 100%.

What about the residual activity [39] of the same compound?
Its residual activity is 41%.

What about the residual activity [40] of the same compound?
The residual activity was 98%.

What about the residual activity [41] of the same compound?
The residual activity was 91%.

What about the residual activity [42] of the same compound?
Its residual activity is 80%.

And the residual activity [43]?
Its residual activity is 78%.
